In experiment [1] the test system is Beet Armyworm (Spodoptera exigua). Nature of the experiment: Bioassay on Beet Armyworm (BAW), 128-well diet tray assay. As to conditions: Beet Armyworm, Table ABC, read-out: BAW rating. Format: in vivo. The procedure, abridged: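 Percent mortality, averaged over eight wells, was scored after five to seven days at 25° C under 14:10 light-dark. Each well's diet carried 50 μg/cm^2 of test molecule applied in acetone-water (90:10) and dried before one to five second-instar larvae were added.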

The test system of experiment [2] is Cabbage Looper (Trichoplusia ni). Nature of the experiment: Bioassay on Cabbage Looper (CL), 128-well diet tray assay. As to conditions: Cabbage Looper, Table ABC, read-out: CL rating. Format: in vivo. In a few lines:
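Mortality after five to seven days at 25° C (14:10 photoperiod), averaged over eight wells per compound. Diet in each well carried 50 μg/cm^2 of dried test molecule and received one to five second-instar larvae.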

In the case of `C[C@@H](NC(=O)c1ccc(/C(F)=C/C(c2ccc(Br)c(F)c2)C(F)(F)F)cc1C(F)(F)F)C(=O)NCC(F)(F)F` (stereo partly drawn) [F170, 4-((Z)-3-(4-Bromo-3-fluorophenyl)-1,4,4,4-tetrafluorobut-1-en-1-yl)-N—((R)-1-oxo-1-((2,2,2-trifluoroethyl)amino)propan-2-yl)-2-(trifluoromethyl)benzamide], the pest or weed control at 50 µg/cm2 in experiment [1] and in experiment [2] was 50 to 100% each time.

Turning to `O=C(N[C@@H]1CCN(CC(F)(F)F)C1=O)c1ccc(/C(F)=C/C(c2cc(Cl)c(Cl)c(Cl)c2)C(F)(F)F)cc1C(F)(F)F` (stereo partly drawn) [F171, N—((R)-2-Oxo-1-(2,2,2-trifluoroethyl)pyrrolidin-3-yl)-4-((Z)-1,4,4,4-tetrafluoro-3-(3,4,5-trichlorophenyl)but-1-en-1-yl)-2-(trifluoromethyl)benzamide], the pest or weed control at 50 µg/cm2 in experiment [1] and in experiment [2] was 50 to 100% in each case.

Take `CNC(=O)[C@@H](C)NC(=O)c1ccc(/C(F)=C/C(c2cc(Cl)c(Cl)c(Cl)c2)C(F)(F)F)cc1C(F)(F)F` (stereo partly drawn) [F173, N—((R)-1-(Methylamino)-1-oxopropan-2-yl)-4-((Z)-1,4,4,4-tetrafluoro-3-(3,4,5-trichlorophenyl)but-1-en-1-yl)-2-(trifluoromethyl)benzamide]: the pest or weed control at 50 µg/cm2 in experiment [1] and in experiment [2] was 50 to 100% each time.

With `CCC(F)(F)C(/C=C(\F)c1ccc(C(=O)N[C@H](C)C(=O)NCC(F)(F)F)c(C(F)(F)F)c1)c1cc(Cl)c(Cl)c(Cl)c1` (stereo partly drawn) [F174, N—((R)-1-Oxo-1-((2,2,2-trifluoroethyl)amino)propan-2-yl)-4-((Z)-1,4,4-trifluoro-3-(3,4,5-trichlorophenyl)hex-1-en-1-yl)-2-(trifluoromethyl)benzamide], the pest or weed control at 50 µg/cm2 in experiment [1] and in experiment [2] was 50 to 100% each time.

For the compound `C[C@@H](NC(=O)c1ccc(/C(F)=C/C(c2cc(Cl)cc(C(C)(F)F)c2)C(F)(F)F)cc1C(F)(F)F)C(=O)NCC(F)(F)F` (stereo partly drawn) [F175, 4-((Z)-3-(3-Chloro-5-(1,1-difluoroethyl)phenyl)-1,4,4,4-tetrafluorobut-1-en-1-yl)-N—((R)-1-oxo-1-((2,2,2-trifluoroethyl)amino)propan-2-yl)-2-(trifluoromethyl)benzamide], the pest or weed control at 50 µg/cm2 in experiment [1] and in experiment [2] was 50 to 100% each time.

Consider `C[C@@H](NC(=O)c1ccc(/C(F)=C/C(c2cc(Cl)cc(CC(F)(F)F)c2)C(F)(F)F)cc1C(F)(F)F)C(=O)NCC(F)(F)F` (stereo partly drawn) [F176, 4-((Z)-3-(3-Chloro-5-(2,2,2-trifluoroethyl)phenyl)-1,4,4,4-tetrafluorobut-1-en-1-yl)-N—((R)-1-oxo-1-((2,2,2-trifluoroethyl)amino)propan-2-yl)-2-(trifluoromethyl)benzamide], for which the pest or weed control at 50 µg/cm2 in experiment [1] and in experiment [2] was 50 to 100% throughout.

`O=C(N[C@@H]1CON(CC(F)(F)F)C1=O)c1ccc(/C(F)=C/C(c2cc(Cl)cc(CC(F)(F)F)c2)C(F)(F)F)cc1C(F)(F)F` (stereo partly drawn) [F178, 4-((Z)-3-(3-Chloro-5-(2,2,2-trifluoroethyl)phenyl)-1,4,4,4-tetrafluorobut-1-en-1-yl)-N—((R)-3-oxo-2-(2,2,2-trifluoroethyl)isoxazolidin-4-yl)-2-(trifluoromethyl)benzamide]: the pest or weed control at 50 µg/cm2 in experiment [1] and in experiment [2] was 50 to 100% throughout.

Turning to `C[C@@H](NC(=O)c1ccc(/C(F)=C/C(c2cc(Cl)cc(OC(F)(F)F)c2)C(F)(F)F)cc1C(F)(F)F)C(=O)NCC(F)(F)F` (stereo partly drawn) [F181, 4-((Z)-3-(3-Chloro-5-(trifluoromethoxy)phenyl)-1,4,4,4-tetrafluorobut-1-en-1-yl)-N—((R)-1-oxo-1-((2,2,2-trifluoroethyl)amino)propan-2-yl)-2-(trifluoromethyl)benzamide], the pest or weed control at 50 µg/cm2 in experiment [1] and in experiment [2] was 50 to 100% each time.

The record behind these values is patent publication US10251394B2, “Molecules having pesticidal utility, and intermediates, compositions, and processes, related thereto” (Dow AgroSciences LLC, priority 2016, dated 2019).
